Experiments:
[1] = target: Phosphatidylinositol 4,5-bisphosphate 3-kinase catalytic subunit alpha isoform (Homo sapiens) (UniProt P42336); details: Compound concentration 1000.0 nM
[2] = target: Activin receptor type-2A (Homo sapiens) (UniProt P27037); details: Compound concentration 1000.0 nM
[3] = target: Pituitary adenylate cyclase-activating polypeptide type I receptor (Homo sapiens) (UniProt P41586); details: Compound concentration 10.0 uM
Description: PACAP CEREP ligand profiling

[4] = target: Ribosomal protein S6 kinase alpha-3 (Homo sapiens) (UniProt P51812); details: Compound concentration 1000.0 nM
[5] = target: Type-2 angiotensin II receptor (Homo sapiens) (UniProt P50052); details: Compound concentration 10.0 uM
Description: AT2 CEREP ligand profiling

[6] = target: Serine/threonine-protein kinase SIK3 (Homo sapiens) (UniProt Q9Y2K2); details: Compound concentration 1000.0 nM
[7] = target: Adenosine receptor A1 (Homo sapiens) (UniProt P30542); details: Compound concentration 10.0 uM
Description: A1 CEREP ligand profiling

[8] = target: Rhodopsin kinase GRK7 (Homo sapiens) (UniProt Q8WTQ7); details: Compound concentration 1000.0 nM
Rhodopsin kinase GRK7 (Homo sapiens), sequence (Q8WTQ7 whole entry): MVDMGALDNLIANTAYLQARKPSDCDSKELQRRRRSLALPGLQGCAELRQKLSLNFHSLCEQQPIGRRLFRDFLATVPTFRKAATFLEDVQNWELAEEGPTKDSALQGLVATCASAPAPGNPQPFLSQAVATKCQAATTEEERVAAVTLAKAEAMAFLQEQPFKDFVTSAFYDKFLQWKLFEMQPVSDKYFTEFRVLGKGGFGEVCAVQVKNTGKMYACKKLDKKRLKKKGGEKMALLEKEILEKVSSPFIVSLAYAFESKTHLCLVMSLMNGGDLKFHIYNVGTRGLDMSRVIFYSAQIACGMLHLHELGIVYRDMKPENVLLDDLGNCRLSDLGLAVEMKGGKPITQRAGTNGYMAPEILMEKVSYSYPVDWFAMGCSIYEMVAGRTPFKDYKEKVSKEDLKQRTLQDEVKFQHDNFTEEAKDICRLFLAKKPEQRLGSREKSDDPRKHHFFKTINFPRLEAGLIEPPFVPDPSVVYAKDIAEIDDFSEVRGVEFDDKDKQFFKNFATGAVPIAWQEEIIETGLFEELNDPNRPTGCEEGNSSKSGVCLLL

[9] = target: Protein-tyrosine kinase 6 (Homo sapiens) (UniProt Q13882); details: Compound concentration 1000.0 nM
[10] = target: Substance-K receptor (Homo sapiens) (UniProt P21452); experiment: NK2 CEREP ligand profiling; details: Compound concentration 10.0 uM
[11] = target: Sodium-dependent dopamine transporter (Homo sapiens) (UniProt Q01959); experiment: DA transporter CEREP ligand profiling; details: Compound concentration 10.0 uM
[12] = target: 5-hydroxytryptamine receptor 3A (Homo sapiens) (UniProt P46098); details: Compound concentration 10.0 uM
Description: 5-HT3 CEREP ligand profiling

[13] = target: D(1A) dopamine receptor (Homo sapiens) (UniProt P21728); experiment: D1 CEREP ligand profiling; details: Compound concentration 10.0 uM
[14] = target: Endothelin receptor type B (Homo sapiens) (UniProt P24530); details: Compound concentration 10.0 uM
Description: ETB CEREP ligand profiling

[15] = target: Dual specificity mitogen-activated protein kinase kinase 3 (Homo sapiens) (UniProt P46734); details: Compound concentration 1000.0 nM
Dual specificity mitogen-activated protein kinase kinase 3 (Homo sapiens), sequence (P46734 whole entry): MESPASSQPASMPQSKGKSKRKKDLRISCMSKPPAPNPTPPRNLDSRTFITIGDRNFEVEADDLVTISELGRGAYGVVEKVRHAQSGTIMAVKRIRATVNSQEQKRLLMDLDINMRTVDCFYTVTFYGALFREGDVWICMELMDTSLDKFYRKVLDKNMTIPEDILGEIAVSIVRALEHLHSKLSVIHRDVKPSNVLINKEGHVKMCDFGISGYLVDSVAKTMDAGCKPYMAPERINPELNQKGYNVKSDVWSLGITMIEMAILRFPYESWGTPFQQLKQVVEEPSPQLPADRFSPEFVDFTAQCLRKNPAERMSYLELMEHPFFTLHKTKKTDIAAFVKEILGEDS

[16] = target: Activin receptor type-1-like (Homo sapiens) (UniProt P37023); details: Compound concentration 1000.0 nM
Activin receptor type-1-like (Homo sapiens), sequence (P37023 whole entry): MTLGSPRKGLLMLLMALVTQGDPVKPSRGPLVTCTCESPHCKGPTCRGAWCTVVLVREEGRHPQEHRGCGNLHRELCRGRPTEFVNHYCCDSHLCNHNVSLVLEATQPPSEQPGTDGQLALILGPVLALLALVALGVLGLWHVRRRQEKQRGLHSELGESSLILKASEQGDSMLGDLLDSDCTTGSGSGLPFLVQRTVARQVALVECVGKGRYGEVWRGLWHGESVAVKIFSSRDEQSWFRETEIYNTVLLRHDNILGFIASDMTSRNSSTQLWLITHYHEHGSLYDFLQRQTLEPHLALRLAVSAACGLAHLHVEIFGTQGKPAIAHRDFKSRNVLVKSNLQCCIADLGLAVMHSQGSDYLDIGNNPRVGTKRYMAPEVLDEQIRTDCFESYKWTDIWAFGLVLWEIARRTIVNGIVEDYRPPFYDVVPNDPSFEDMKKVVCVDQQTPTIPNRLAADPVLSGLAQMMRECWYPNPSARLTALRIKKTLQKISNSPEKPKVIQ

[17] = target: SRSF protein kinase 2 (Homo sapiens) (UniProt P78362); details: Compound concentration 1000.0 nM
SRSF protein kinase 2 (Homo sapiens), sequence (P78362 whole entry, looked up): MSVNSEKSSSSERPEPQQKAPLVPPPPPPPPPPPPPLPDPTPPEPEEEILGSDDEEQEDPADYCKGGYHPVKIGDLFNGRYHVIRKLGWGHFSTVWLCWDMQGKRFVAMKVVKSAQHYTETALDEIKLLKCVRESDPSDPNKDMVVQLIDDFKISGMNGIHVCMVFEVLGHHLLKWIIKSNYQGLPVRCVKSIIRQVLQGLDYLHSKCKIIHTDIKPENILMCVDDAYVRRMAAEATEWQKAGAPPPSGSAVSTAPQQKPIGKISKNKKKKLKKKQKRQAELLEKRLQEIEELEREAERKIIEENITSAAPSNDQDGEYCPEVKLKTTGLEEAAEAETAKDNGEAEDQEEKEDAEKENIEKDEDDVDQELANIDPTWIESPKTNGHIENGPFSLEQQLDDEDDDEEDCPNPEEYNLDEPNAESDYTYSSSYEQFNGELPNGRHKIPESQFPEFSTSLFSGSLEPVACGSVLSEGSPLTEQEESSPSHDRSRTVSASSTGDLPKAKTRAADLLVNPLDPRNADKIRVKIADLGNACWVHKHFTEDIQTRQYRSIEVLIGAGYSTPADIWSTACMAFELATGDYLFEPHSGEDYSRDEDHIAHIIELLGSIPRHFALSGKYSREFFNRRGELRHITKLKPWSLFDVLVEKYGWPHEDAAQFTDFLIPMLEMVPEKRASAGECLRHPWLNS

[18] = target: 5-hydroxytryptamine receptor 5A (Homo sapiens) (UniProt P47898); experiment: 5-HT5A CEREP ligand profiling; details: Compound concentration 10.0 uM
[19] = target: Protein-tyrosine kinase 2-beta (Homo sapiens) (UniProt Q14289); details: Compound concentration 1000.0 nM
[20] = target: Muscarinic acetylcholine receptor M4 (Homo sapiens) (UniProt P08173); details: Compound concentration 10.0 uM
Description: M4 CEREP ligand profiling

[21] = target: Serine/threonine-protein kinase MRCK gamma (Homo sapiens) (UniProt Q6DT37); details: Compound concentration 1000.0 nM
Serine/threonine-protein kinase MRCK gamma (Homo sapiens), sequence (Q6DT37 whole entry): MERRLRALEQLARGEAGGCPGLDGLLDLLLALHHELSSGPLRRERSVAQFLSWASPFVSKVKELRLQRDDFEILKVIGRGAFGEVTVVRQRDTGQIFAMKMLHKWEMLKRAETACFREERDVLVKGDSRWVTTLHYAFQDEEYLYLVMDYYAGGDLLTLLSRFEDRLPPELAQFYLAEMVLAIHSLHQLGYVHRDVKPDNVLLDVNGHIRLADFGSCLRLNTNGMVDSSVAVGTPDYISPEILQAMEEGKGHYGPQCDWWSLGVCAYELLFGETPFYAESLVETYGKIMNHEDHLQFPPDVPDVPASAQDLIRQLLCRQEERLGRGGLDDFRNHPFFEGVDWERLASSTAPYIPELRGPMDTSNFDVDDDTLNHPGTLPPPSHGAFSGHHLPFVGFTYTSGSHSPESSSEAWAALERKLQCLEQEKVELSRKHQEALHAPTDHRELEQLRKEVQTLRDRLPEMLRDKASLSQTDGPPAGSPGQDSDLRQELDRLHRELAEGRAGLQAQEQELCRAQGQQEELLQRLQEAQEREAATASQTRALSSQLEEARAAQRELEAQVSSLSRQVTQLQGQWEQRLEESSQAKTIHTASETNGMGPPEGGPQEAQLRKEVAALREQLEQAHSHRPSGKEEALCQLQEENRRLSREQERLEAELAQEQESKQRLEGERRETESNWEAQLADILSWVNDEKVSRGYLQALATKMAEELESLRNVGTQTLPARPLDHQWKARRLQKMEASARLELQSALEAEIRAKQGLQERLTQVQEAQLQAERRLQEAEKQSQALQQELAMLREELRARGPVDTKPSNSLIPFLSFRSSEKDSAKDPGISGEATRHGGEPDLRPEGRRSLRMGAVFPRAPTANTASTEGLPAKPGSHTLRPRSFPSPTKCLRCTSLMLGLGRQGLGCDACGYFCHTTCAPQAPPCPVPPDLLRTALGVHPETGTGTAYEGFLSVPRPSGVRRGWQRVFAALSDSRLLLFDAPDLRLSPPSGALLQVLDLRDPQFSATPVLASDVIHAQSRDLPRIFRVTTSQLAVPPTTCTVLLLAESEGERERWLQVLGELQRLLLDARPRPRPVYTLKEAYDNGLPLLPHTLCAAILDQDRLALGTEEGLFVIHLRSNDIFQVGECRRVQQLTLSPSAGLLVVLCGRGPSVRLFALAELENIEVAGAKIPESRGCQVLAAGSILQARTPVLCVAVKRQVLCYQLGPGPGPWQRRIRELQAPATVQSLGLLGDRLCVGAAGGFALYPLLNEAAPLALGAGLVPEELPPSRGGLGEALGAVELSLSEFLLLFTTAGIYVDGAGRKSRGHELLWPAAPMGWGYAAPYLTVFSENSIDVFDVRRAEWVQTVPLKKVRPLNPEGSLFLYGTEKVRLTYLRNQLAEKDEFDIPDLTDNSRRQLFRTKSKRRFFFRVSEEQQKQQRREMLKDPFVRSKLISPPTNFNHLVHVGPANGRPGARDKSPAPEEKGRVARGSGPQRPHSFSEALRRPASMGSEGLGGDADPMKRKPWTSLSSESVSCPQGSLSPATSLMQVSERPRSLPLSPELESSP

[22] = target: Nociceptin receptor (Homo sapiens) (UniProt P41146); details: Compound concentration 10.0 uM
Description: ORL1 CEREP ligand profiling

[23] = target: Adrenergic receptor alpha-2 (Homo sapiens) (UniProt P08913+P18825+P18089); experiment: a 2 CEREP ligand profiling; type: protein assay; details: Compound concentration 10.0 uM
[24] = target: C-C chemokine receptor type 1 (Homo sapiens) (UniProt P32246); details: Compound concentration 10.0 uM
Description: CCR1 CEREP ligand profiling

[25] = target: 5-hydroxytryptamine receptor 7 (Homo sapiens) (UniProt P34969); details: Compound concentration 10.0 uM
Description: 5-HT7 CEREP ligand profiling

[26] = target: P2Y receptor (Homo sapiens) (UniProt Q9H244+P51582+P47900+P41231+Q15391+Q15077+Q96G91+Q9BPV8); details: Compound concentration 10.0 uM
Description: P2Y CEREP ligand profiling

[27] = target: 5-hydroxytryptamine receptor 1A (Homo sapiens) (UniProt P08908); experiment: 5-HT1A CEREP ligand profiling; details: Compound concentration 10.0 uM
[28] = target: Casein kinase I isoform gamma-2 (Homo sapiens) (UniProt P78368); details: Compound concentration 1000.0 nM
[29] = target: Translocator protein (Rattus norvegicus) (UniProt P16257); details: Compound concentration 10.0 uM
Description: BZD (peripheral) CEREP ligand profiling

[30] = target: 5-hydroxytryptamine receptor 2A (Homo sapiens) (UniProt P28223); details: Compound concentration 10.0 uM
Description: 5-HT2A CEREP ligand profiling

[31] = target: Mitogen-activated protein kinase kinase kinase kinase 5 (Homo sapiens) (UniProt Q9Y4K4); details: Compound concentration 1000.0 nM
Mitogen-activated protein kinase kinase kinase kinase 5 (Homo sapiens), sequence (Q9Y4K4 whole entry, looked up): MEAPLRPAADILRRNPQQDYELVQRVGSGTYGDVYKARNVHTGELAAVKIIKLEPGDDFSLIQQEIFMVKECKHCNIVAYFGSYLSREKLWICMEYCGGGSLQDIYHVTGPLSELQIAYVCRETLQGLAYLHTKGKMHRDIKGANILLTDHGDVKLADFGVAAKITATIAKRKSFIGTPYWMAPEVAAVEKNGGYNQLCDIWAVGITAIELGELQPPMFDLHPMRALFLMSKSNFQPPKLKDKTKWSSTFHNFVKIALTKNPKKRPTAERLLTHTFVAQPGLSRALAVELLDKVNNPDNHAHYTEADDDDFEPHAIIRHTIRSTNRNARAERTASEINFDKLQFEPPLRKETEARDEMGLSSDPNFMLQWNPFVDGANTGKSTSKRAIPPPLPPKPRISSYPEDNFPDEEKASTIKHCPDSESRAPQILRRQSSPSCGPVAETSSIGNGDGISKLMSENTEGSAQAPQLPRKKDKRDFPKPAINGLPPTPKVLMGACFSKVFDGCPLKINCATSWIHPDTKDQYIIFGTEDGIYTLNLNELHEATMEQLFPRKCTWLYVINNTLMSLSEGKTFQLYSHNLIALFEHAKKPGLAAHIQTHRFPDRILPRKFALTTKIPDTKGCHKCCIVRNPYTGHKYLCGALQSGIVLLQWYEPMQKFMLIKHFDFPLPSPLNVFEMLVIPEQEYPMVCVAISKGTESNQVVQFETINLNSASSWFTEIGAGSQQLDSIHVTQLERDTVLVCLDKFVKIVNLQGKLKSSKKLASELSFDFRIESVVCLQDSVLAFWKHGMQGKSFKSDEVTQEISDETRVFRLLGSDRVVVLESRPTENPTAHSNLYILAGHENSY

[32] = target: D(3) dopamine receptor (Homo sapiens) (UniProt P35462); details: Compound concentration 10.0 uM
Description: D3 CEREP ligand profiling

[33] = target: Somatostatin receptor (Homo sapiens) (UniProt P35346+P30874+P31391+P30872+P32745); details: Compound concentration 10.0 uM
Description: Somatostatin CEREP ligand profiling

[34] = target: Neuromedin-K receptor (Homo sapiens) (UniProt P29371); experiment: NK3 CEREP ligand profiling; details: Compound concentration 10.0 uM
[35] = target: Histamine H2 receptor (Homo sapiens) (UniProt P25021); details: Compound concentration 10.0 uM
Description: H2 CEREP ligand profiling

[36] = target: D(4) dopamine receptor (Homo sapiens) (UniProt P21917); details: Compound concentration 10.0 uM
Description: D4 CEREP ligand profiling

[37] = target: Delta-type opioid receptor (Homo sapiens) (UniProt P41143); details: Compound concentration 10.0 uM
Description: delta CEREP ligand profiling

[38] = target: Voltage-gated L-type calcium channel (Ca2+ channel) (Homo sapiens, UniProt O60840+Q01668+Q13698+Q13936); experiment: Ca2+ channel CEREP ligand profiling; type: protein assay; details: compound concentration 10 uM
[39] = target: Phosphorylase b kinase regulatory subunit alpha, liver isoform (Homo sapiens) (UniProt P46019); details: Compound concentration 1000.0 nM
D(4) dopamine receptor = target: T1, D(4) dopamine receptor (Homo sapiens, UniProt P21917); experiment: Cellular FLIPR (fluorometric imaging plate reader) assay
T1 sequence (P21917 whole entry): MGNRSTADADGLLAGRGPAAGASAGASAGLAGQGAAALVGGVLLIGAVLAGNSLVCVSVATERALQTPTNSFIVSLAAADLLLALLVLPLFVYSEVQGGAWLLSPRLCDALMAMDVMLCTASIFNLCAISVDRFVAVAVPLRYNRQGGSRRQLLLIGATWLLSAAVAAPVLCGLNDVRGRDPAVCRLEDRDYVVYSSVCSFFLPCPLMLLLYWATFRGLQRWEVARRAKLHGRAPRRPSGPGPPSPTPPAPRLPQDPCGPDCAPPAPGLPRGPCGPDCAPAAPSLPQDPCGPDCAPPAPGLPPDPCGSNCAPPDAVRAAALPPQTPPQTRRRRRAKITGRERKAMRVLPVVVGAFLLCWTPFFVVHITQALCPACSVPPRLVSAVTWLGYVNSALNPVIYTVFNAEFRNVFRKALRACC

Activin receptor type-2A (Homo sapiens), sequence (P27037 whole entry): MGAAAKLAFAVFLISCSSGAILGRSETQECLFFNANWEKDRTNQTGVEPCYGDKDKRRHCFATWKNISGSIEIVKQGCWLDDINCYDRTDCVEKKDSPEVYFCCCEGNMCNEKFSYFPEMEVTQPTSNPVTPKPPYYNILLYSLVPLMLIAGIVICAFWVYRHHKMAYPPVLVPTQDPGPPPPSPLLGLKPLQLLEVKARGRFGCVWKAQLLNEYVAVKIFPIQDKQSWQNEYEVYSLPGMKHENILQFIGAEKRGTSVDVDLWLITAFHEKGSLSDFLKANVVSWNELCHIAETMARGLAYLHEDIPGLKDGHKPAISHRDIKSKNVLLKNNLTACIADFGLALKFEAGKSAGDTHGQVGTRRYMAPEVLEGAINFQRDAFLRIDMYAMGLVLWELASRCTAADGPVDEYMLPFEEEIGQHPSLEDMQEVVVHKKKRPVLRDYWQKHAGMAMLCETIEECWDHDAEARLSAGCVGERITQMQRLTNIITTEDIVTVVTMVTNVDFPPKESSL

Q: Which results are given for `c1ccc(N2CCN(Cc3nc4ccccc4[nH]3)CC2)nc1` [ABT-724]?
A: residual activity [1]: 100%; residual activity [2]: 100%; inhibition [3]: < 10%; residual activity [4]: 100%; inhibition [5]: < 10%; residual activity [6]: 91%; inhibition [7]: < 10%; residual activity [8]: 100%; residual activity [9]: 100%; inhibition [10]: 15%; inhibition [11]: 11%; inhibition [12]: 10%; inhibition [13]: 24%; inhibition [14]: < 10%; residual activity [15]: 96%; residual activity [16]: 95%; residual activity [17]: 100%; inhibition [18]: 21%; residual activity [19]: 100%; inhibition [20]: < 10%; residual activity [21]: 100%; inhibition [22]: < 10%; inhibition [23]: 21%; inhibition [24]: < 10%; inhibition [25]: < 10%; inhibition [26]: < 10%; inhibition [27]: 73%; residual activity [28]: 100%; inhibition [29]: < 10%; inhibition [30]: < 10%; residual activity [31]: 100%; inhibition [32]: < 10%; inhibition [33]: < 10%; inhibition [34]: 26%; inhibition [35]: < 10%; inhibition [36]: 99%; inhibition [37]: < 10%; inhibition at 10 µM [38]: < 10% (not active)

Q: For `CSc1cccnc1N1CCN(Cc2nc3ccccc3[nH]2)CC1` [A-769], which residual activity [1] is on record?
A: Its residual activity is 69%.

Q: And the residual activity [2]?
A: The residual activity was 69%.

Q: And the residual activity [4]?
A: The residual activity was 77%.

Q: What about the residual activity [6] of the same molecule?
A: Its residual activity is 100%.

Q: And the residual activity [8]?
A: The residual activity was 87%.

Q: What about the residual activity [9] of the same molecule?
A: Its residual activity is 88%.

Q: And the residual activity [39]?
A: Its residual activity is 100%.

Q: And the residual activity [15]?
A: Its residual activity is 100%.

Q: And the residual activity [16]?
A: The residual activity was 100%.

Q: What about the residual activity [17] of the same molecule?
A: Its residual activity is 59%.

Q: What about the residual activity [19] of the same molecule?
A: Its residual activity is 100%.

Q: And the residual activity [21]?
A: Its residual activity is 100%.

Q: What about the residual activity [28] of the same molecule?
A: Its residual activity is 99%.

Q: What about the residual activity [31] of the same molecule?
A: The residual activity was 100%.

Q: And the IC50 (D(4) dopamine receptor)?
A: Its IC50 is > 10 µM (not active).
